Data: patent publication US20230277534A1 (Plexxikon Inc., priority 2011, published 2023)

Assays:
[1] = test system: IPC-298 human melanoma cell line that expresses activated NRAS; experiment: IPC-298_P-ERK cell activation assay (phosphorylated ERK, AlphaScreen); format: cell-based; details: IPC-298 cells, P-ERK activation
Method: B9 is a squamous cell carcinoma cell line expressing activated HRAS that was isolated from a DMBA/TPA-induced mouse model of skin carcinogenesis (Stoler, et al. The Journal of Cell Biology, 1993, 122(5), 1103-17). IPC-298 is a human melanoma cell line that expresses activated NRAS (Aubert, et al. International Journal of Cancer, 1993, 54(5), 784-92). To determine whether compounds induce phosphorylated ERK and MEK, cells are plated in a 96-well dish and treated with an 8-point titration of compound for one hour at 37° C. The media is then removed and the cells are incubated with lysis buffer containing protease and phosphatase inhibitors. Phosphorylated ERK and MEK in the resulting lysates is detected using AlphaScreen™ technology. To detect phosphorylated ERK, cell lysates are incubated with streptavidin-coated donor beads, anti-mouse IgG acceptor beads, a biotinylated anti-ERK1/2 rabbit antibody, and a mouse antibody that recognizes ERK1/2 only when it is phosphorylated on Thr202 and Tyr204. The biotinylated ERK1/2 antibody will bind to both the streptavidin-coated donor beads and to ERK1/2 (regardless of its phosphorylation state), and the phospho-ERK1/2 antibody will bind to the acceptor beads and to ERK1/2 that is phosphorylated at Thr202/Tyr204. Excitation of the beads with laser light at 680 nm produces singlet oxygen, which is rapidly quenched unless the beads are in close proximity. When ERK is phosphorylated, both antibodies can bind the same protein, bringing the donor and acceptor beads into close proximity, producing a signal that can be measured at 580 nm. MEK phosphorylation is detected using a similar approach, only with antibodies directed against total MEK1/2 and MEK1/2 that is phosphorylated at Ser217 and Ser221.

B-Raf V600E = B-Raf V600E (Homo sapiens (Human), UniProt P15056, V600E); experiment: B-Raf V600E kinase biochemical activity assay (AlphaScreen, biotin-MEK1 substrate); details: 100 μM ATP
Chain of B-Raf V600E (P15056 whole entry V600E): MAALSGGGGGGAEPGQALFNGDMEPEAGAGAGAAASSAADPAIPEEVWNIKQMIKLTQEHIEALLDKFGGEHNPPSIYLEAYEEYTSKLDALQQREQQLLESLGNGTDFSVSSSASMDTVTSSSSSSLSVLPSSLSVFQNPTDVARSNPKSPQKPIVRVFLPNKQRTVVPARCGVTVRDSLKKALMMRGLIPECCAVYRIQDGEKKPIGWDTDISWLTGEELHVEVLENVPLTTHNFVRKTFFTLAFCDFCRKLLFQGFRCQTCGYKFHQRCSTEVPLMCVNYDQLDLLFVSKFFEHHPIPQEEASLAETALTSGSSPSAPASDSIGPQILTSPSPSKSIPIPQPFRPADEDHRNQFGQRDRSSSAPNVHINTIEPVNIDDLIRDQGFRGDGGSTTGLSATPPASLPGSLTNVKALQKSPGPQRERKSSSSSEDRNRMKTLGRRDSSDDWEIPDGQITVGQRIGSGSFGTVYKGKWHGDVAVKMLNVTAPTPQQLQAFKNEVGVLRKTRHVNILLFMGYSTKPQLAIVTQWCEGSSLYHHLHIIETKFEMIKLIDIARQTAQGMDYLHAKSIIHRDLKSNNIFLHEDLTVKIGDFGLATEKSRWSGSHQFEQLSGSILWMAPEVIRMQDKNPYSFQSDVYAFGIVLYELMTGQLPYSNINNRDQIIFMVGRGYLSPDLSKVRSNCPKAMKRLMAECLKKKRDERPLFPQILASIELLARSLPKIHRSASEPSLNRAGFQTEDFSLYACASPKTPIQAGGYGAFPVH
How it was run: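 IC50 was derived from AlphaScreen signal (anti-phospho-MEK1/2 antibody with streptavidin donor and Protein A acceptor beads, 3 h) across 8 compound concentrations. The kinase step ran 45 min at room temperature: 0.1 ng B-Raf V600E, 100 nM biotin-MEK1, 100 μM final ATP, pH 7.0 HEPES with MgCl2/MnCl2.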

[2] = test system: COLO205 colon adenocarcinoma cells (B-Raf V600E mutation); experiment: COLO205 cell growth inhibition (ATPlite); format: cell-based; details: Homo sapiens, COLO 205, 72 h, 3 days
How it was run: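 Cells treated for 3 days at 37 °C, 5% CO2 with an 8-point 1:3 dilution series, top final concentration 10 μM, DMSO control. ATPlite luminescence used as a measure of cell number; IC50 from reading versus concentration.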

SMILES	EC50 ([1]; compounds known in the art)	IC50 (B-Raf V600E)	EC50 ([1]; 1 h, compound for one hour)	IC50 [2]
COc1ncc(-c2cnc3[nH]cc(C(=O)c4c(F)ccc(NS(=O)(=O)c5cc(F)ccc5F)c4F)c3c2)cn1	< 1 µM			
COc1ncc(-c2cnc3[nH]cc(C(=O)c4c(F)ccc(NS(=O)(=O)c5ccccc5F)c4F)c3c2)cn1	< 0.5 µM			
CCCS(=O)(=O)Nc1ccc(F)c(C(=O)c2c[nH]c3ncc(Cl)cc23)c1F	< 0.5 µM			
O=C(c1c(F)ccc(NS(=O)(=O)N2CCCC2)c1F)c1c[nH]c2ncc(F)c(I)c12 [Compound P-0015, N-[2,4-difluoro-3-(5-fluoro-4-iodo-1H-pyrrolo[2,3-b]pyridine-3-carbonyl)phenyl]pyrrolidine-1-sulfonamide]		< 0.1 µM	> 10 µM	
CCN(C)S(=O)(=O)Nc1cccc(C(=O)c2c[nH]c3ncc(Cl)cc23)c1F [Compound P-0018, 5-chloro-3-[3-[[ethyl(methyl)sulfamoyl]amino]-2-fluoro-benzoyl]-1H-pyrrolo[2,3-b]pyridine]		< 0.1 µM	> 10 µM	> 1 µM
CCN(C)S(=O)(=O)Nc1cccc(C(=O)c2c[nH]c3ncc(-c4cnc(OC)nc4)cc23)c1F [Compound P-0020]			> 10 µM	< 1 µM
CN(C)c1ncc(-c2cnc3[nH]cc(C(=O)c4c(F)ccc(NS(=O)(=O)N5CCCC5)c4F)c3c2)cn1 [Compound P-0022]			> 10 µM	
O=C(c1c(F)ccc(NS(=O)(=O)N2CCCC2)c1F)c1c[nH]c2ncc(I)cc12 [Compound P-0024]			> 10 µM	
COc1ncc(-c2cnc3[nH]cc(C(=O)c4cccc(NS(=O)(=O)N(C)C5CC5)c4F)c3c2)cn1 [Compound P-0025]			> 10 µM	< 1 µM
CNS(=O)(=O)Nc1cccc(C(=O)c2c[nH]c3ncc(-c4cnc(OC)nc4)cc23)c1F [Compound P-0026]			> 10 µM	
CN(C)c1ccc(-c2cnc3[nH]cc(C(=O)c4cccc(NS(=O)(=O)N(C)C)c4F)c3c2)cn1 [Compound P-0030]			> 10 µM	
CN(C)S(=O)(=O)Nc1cccc(C(=O)c2c[nH]c3ncc(-c4ccccc4)cc23)c1F [Compound P-0037, 3-[3-(dimethylsulfamoylamino)-2-fluoro-benzoyl]-5-phenyl-1H-pyrrolo[2,3-b]pyridine]		< 0.1 µM	> 10 µM	
COc1ncc(-c2cnc3[nH]cc(C(=O)c4cccc(NS(=O)(=O)N5CCC(OCc6ccccc6)C5)c4F)c3c2)cn1 (stereo not shown) [Compound P-0041, 3-benzyloxy-N-[2-fluoro-3-[5-(2-methoxypyrimidin-5-yl)-1H-pyrrolo[2,3-b]pyridine-3-carbonyl]phenyl]pyrrolidine-1-sulfonamide]		> 0.1 µM	> 10 µM	
Cn1cc(-c2cnc3[nH]cc(C(=O)c4cccc(NS(=O)(=O)CC5CC5)c4F)c3c2)cn1 [Compound P-0042, 1-cyclopropyl-N-[2-fluoro-3-[5-(1-methylpyrazol-4-yl)-1H-pyrrolo[2,3-b]pyridine-3-carbonyl]phenyl]methanesulfonamide]			> 10 µM	< 1 µM
COc1ncc(-c2cnc3[nH]cc(C(=O)c4cccc(NS(=O)(=O)N5CCCC5)c4F)c3c2)c(OC)n1 [Compound P-0044, N-[3-[5-(2,4-dimethoxypyrimidin-5-yl)-1H-pyrrolo[2,3-b]pyridine-3-carbonyl]-2-fluoro-phenyl]pyrrolidine-1-sulfonamide]			> 10 µM	< 1 µM
CN(C)c1ccc(-c2cnc3[nH]cc(C(=O)c4cccc(NS(=O)(=O)N5CCCC5)c4F)c3c2)cn1 [Compound P-0046, N-[3-[5-[6-(dimethylamino)-3-pyridyl]-1H-pyrrolo[2,3-b]pyridine-3-carbonyl]-2-fluoro-phenyl]pyrrolidine-1-sulfonamide]		< 0.1 µM	> 10 µM	
COc1cc(-c2cnc3[nH]cc(C(=O)c4c(F)ccc(NS(=O)(=O)N5CCCC5)c4F)c3c2)ccn1 [Compound P-0287, N-[2,4-difluoro-3-[5-(2-methoxy-4-pyridyl)-1H-pyrrolo[2,3-b]pyridine-3-carbonyl]phenyl]pyrrolidine-1-sulfonamide]			> 4 µM	< 1 µM
O=C(c1c(F)ccc(NS(=O)(=O)N2CCC(F)(F)C2)c1F)c1c[nH]c2ncc(-c3cnc(C4CC4)nc3)cc12 [Compound P-0288, N-[3-[5-(2-cyclopropylpyrimidin-5-yl)-1H-pyrrolo[2,3-b]pyridine-3-carbonyl]-2,4-difluoro-phenyl]-3,3-difluoro-pyrrolidine-1-sulfonamide]		< 0.1 µM	> 2 µM	
NS(=O)(=O)Nc1ccc(F)c(C(=O)c2c[nH]c3ncc(-c4cnc(C5CC5)nc4)cc23)c1F [Compound P-0336, 5-(2-cyclopropylpyrimidin-5-yl)-3-[2,6-difluoro-3-(sulfamoylamino)benzoyl]-1H-pyrrolo[2,3-b]pyridine]		> 0.1 µM	> 4 µM	

Second part, the compound after the results:

EC50 ([1]; compounds known in the art)	IC50 (B-Raf V600E)	EC50 ([1]; 1 h, compound for one hour)	IC50 [2]	SMILES
	< 0.1 µM	> 10 µM	> 1 µM	CCN(C)S(=O)(=O)Nc1ccc(F)c(C(=O)c2c[nH]c3ncc(Cl)cc23)c1F [Compound P-0012, 5-chloro-3-[3-[[ethyl(methyl)sulfamoyl]amino]-2,6-difluoro-benzoyl]-1H-pyrrolo[2,3-b]pyridine]
		> 8 µM	< 1 µM	CCN(C)S(=O)(=O)Nc1ccc(F)c(C(=O)c2c[nH]c3ncc(-c4cnc(OC)nc4)cc23)c1F [Compound P-0014]
	< 0.1 µM	> 10 µM	> 1 µM	CCN(C)S(=O)(=O)Nc1ccc(F)c(C(=O)c2c[nH]c3ncc(C#N)cc23)c1F [Compound P-0017, 5-cyano-3-[3-[[ethyl(methyl)sulfamoyl]amino]-2,6-difluoro-benzoyl]-1H-pyrrolo[2,3-b]pyridine]
		> 10 µM	> 1 µM	CCN(C)S(=O)(=O)Nc1cccc(C(=O)c2c[nH]c3ncc(-c4ccc(Cl)cc4)cc23)c1F [Compound P-0019]
	< 0.1 µM	> 10 µM		O=C(c1c(F)ccc(NS(=O)(=O)N2CCCC2)c1F)c1c[nH]c2ncc(-c3ccc(Cl)cc3)cc12 [Compound P-0021]
		> 10 µM		Cc1ccc(-c2cnc3[nH]cc(C(=O)c4cccc(NS(=O)(=O)N(C)C)c4F)c3c2)cn1 [Compound P-0029]
		> 10 µM		CCN(C)S(=O)(=O)Nc1cccc(C(=O)c2c[nH]c3ncc(-c4ccc(C#N)cc4)cc23)c1F [Compound P-0031]
		> 10 µM		CCN(C)S(=O)(=O)Nc1cccc(C(=O)c2c[nH]c3ncc(-c4cccnc4)cc23)c1F [Compound P-0032]
		> 10 µM	< 1 µM	CCN(C)S(=O)(=O)Nc1cccc(C(=O)c2c[nH]c3ncc(-c4ccc(C)nc4)cc23)c1F [Compound P-0033]
		> 10 µM	> 1 µM	CCN(C)S(=O)(=O)Nc1cccc(C(=O)c2c[nH]c3ncc(-c4ccc(F)cc4)cc23)c1F [Compound P-0034]
		> 10 µM	> 1 µM	CN(C)S(=O)(=O)Nc1cccc(C(=O)c2c[nH]c3ncc(-c4ccc(F)cc4)cc23)c1F [Compound P-0035]
	< 0.1 µM	> 10 µM		CCN(C)S(=O)(=O)Nc1cccc(C(=O)c2c[nH]c3ncc(-c4ccccc4)cc23)c1F [Compound P-0036, 3-[3-[[ethyl(methyl)sulfamoyl]amino]-2-fluoro-benzoyl]-5-phenyl-1H-pyrrolo[2,3-b]pyridine]
		> 10 µM	> 1 µM	CCN(C)S(=O)(=O)Nc1cccc(C(=O)c2c[nH]c3ncc(C#N)cc23)c1F [Compound P-0039, 5-cyano-3-[3-[[ethyl(methyl)sulfamoyl]amino]-2-fluoro-benzoyl]-1H-pyrrolo[2,3-b]pyridine]
	< 0.1 µM	> 10 µM		CCN(C)S(=O)(=O)Nc1cccc(C(=O)c2c[nH]c3ncc(-c4ccc(C5(C#N)CC5)cc4)cc23)c1F [Compound P-0061, 5-[4-(1-cyanocyclopropyl)phenyl]-3-[3-[[ethyl(methyl)sulfamoyl]amino]-2-fluoro-benzoyl]-1H-pyrrolo[2,3-b]pyridine]
	< 0.1 µM	> 4 µM		CCN(C)S(=O)(=O)Nc1ccc(F)c(C(=O)c2c[nH]c3ncc(-c4ccc(C#N)cc4)cc23)c1F [Compound P-0300, 5-(4-cyanophenyl)-3-[3-[[ethyl(methyl)sulfamoyl]amino]-2,6-difluoro-benzoyl]-1H-pyrrolo[2,3-b]pyridine]
